Source: patent US20250064846A1, “TREATMENT AND PREVENTION OF TRIGEMINAL NEURALGIA” (THE JOHNS HOPKINS UNIVERSITY, priority 2022, published 2025)
Entries after “also recorded” stand apart in the source; their conditions may differ.

Columns and labels:
[1] = system: constrictive mouse model of trigeminal neuralgia; experiment: Mechanical allodynia (Von Frey filament) after constriction of the maxillary nerve; type: in vivo; conditions: for mechanical allodynia (sensitivity to crude touch): WT mice, i.p. daily for two days before surgery and daily after behavior testing, sulforaphane, exemestane, letrozole 10 mg/kg, JQ-1 40 mg/kg, ascorbate 100 mg/kg, vs vehicle; for persistence of effects after treatment: daily i.p. dosing just after behavior testing
Experimental: Constriction of the Maxillary Nerve Constriction of the maxillary division of trigeminal nerve was performed as previously described (See Benedetti, A., et al., Biochimica Et Biophysica Acta Bba—Lipids Lipid Metabolism 620, 281-296 (1980) and Vos, B., et al J Neurosci 14, 2708-2723 (1994)). The procedure was performed under direct visualization and control with a surgical microscope. Mice were first anesthetized with ketamine (100 mg/kg, i.p.) and xylazine (12.5 mg/kg, i.p.) and monitored by pinching the skin between the toes with forceps and monitoring for withdrawal. Mice were restrained with adhesive tape to a sterilized polystyrene board. Upon sufficient anesthesia, the scalp was shaved and an anterior to posterior skin incision was made at the midline to expose the nasal and maxillary bones. The maxillary nerve was exposed and carefully dissected free from the surrounding connective tissue. The distal end of the maxillary nerve was then loosely constricted using 8-0 silk sutures as a ligature. The sutures were tied using a slip knot followed by a normal knot, after which any remaining suture was cut free. The incision was then closed with a 4-0 silk suture. In the sham procedure, the left maxillary nerve was exposed but not constricted. Mice were monitored and rehydrated until fully recovered from anesthesia.
Pharmacologic Treatments Mice were dosed with either sulforaphane (10 mg/kg, i.p.), exemestane (10 mg/kg, i.p.), letrozole (10 mg/kg, i.p.), (+)-JQ-1 (40 mg/kg, i.p.), (−)-JQ-1 (40 mg/kg, i.p.), or ascorbate (100 mg/kg, i.p.) as indicated below. Mice were first dosed daily for two days before surgery and again daily just after behavior testing. For local exemestane treatment, exemestane (5 μL, 25 μg total) was applied directly to the maxillary nerve. Mice received a single dose during surgery. Mice were dosed with AM-0902 (30 mg/kg, p.o.). Mice were treated with AM-0902 were dosed 30 min prior to behavior testing. Mice were dosed with tamoxifen (75 mg/kg, i.p.). Mice were dosed once every 24 hrs over 5 consecutive days. Behavioral and molecular tests were only performed 7 or more days after the final tamoxifen injection.
Mechanical Allodynia Mechanical allodynia was assessed in C57BL/6J, TRPA1^+/+, TRPA1^−/−, Keap1(f/f), and Keap1(f/f/CMV-CreER mice using a Von Frey filament as previously outlined (See Benedetti, A., et al., Biochimica Et Biophysica Acta Bba—Lipids Lipid Metabolism 620, 281-296 (1980) and Vos, B., et al J Neurosci 14, 2708-2723 (1994)). Animals were placed individually in transparent plastic boxes and allowed to acclimate to the environment for at least 30 min before testing. After habituation, a 0.04 g force Von Frey filament was used to stimulate the territory innervated by the maxillary nerve, including the vibrissal skin pad. Each mouse's response to the filament was scored from 0-4 on the scale below. Each mouse was scored ten times per day. Changes in mechanical allodynia were considered relative to sham- or vehicle-treated animal controls. Behavior was assessed concomitantly or in a blocked manner with consideration for both genotype and treatment. • 0—no response • 1—non-defensive response to the stimulus (e.g., mouse non-defensively explores filament) • 2—withdrawal response (e.g., mouse turns head away from filament) • 3—escape/attack response (e.g., mouse moves body away from filament and assumes crouching position against the box wall; actively attacks filament by biting and/or grabbing) • 4—asymmetric face grooming (e.g., mouse wipes stimulated facial area in uninterrupted series of at least three face-wash strokes)

[2] = system: maxillary nerves of mice after nerve ligation; experiment: Oxidative stress assay in maxillary nerves (4-HNE, protein carbonylation, MDA); type: in vivo, mouse; conditions: for levels of 4-HNE in maxillary nerves after nerve ligation / protein carbonylation in maxillary nerves after nerve ligation: western blot normalized to β-actin, daily i.p. pre-treatment, vs vehicle
Experimental: Western Blotting Western blotting was performed as previously described (See Vasavda, C. et al. Cell Chem Biol 26, 1450-1460.e7 (2019)). Briefly, tissues were homogenized at 4° C. in lysis buffer (pH 7.4 solution of 50 mM Tris-HCl, 150 mM NaCl, 0.1% SDS, 0.5% sodium deoxycholate, and 1% Triton X-100) supplemented with protease inhibitors (Sigma). When dissecting maxillary nerves for immunoblot analysis, nerves were as dissected both as proximally towards the semilunar ganglion and as distal to the skin as possible. Nerves were harvested 11 days after surgery, immediately after the final behavioral test. Lysates were then pulse sonicated and centrifuged at 16,000 g for 10 min at 4° C. Fifteen micrograms of cleared lysate were run on a 4-12% polyacrylamide Bis-Tris gradient gel in running buffer (pH 7.3 solution of 50 mM MES, 50 mM Tris Base, 0.1% SDS, 1 mM EDTA) and then transferred to a PVDF membrane. Membranes were blocked with 5% milk in TBS-T (pH 7.6 solution of 16 mM Tris-HCl, 140 mM NaCl, 0.1% Tween-20) for 1 hr at 25° C. and then incubated with primary antibodies in 3% bovine serum albumin (BSA) (w/v) in TBS-T overnight at 4° C. The following day, membranes were washed with TBS-T, and then incubated with secondary antibodies in 3% BSA (w/v) in TBS-T for 1 hr at 25° C. The following primary antibodies were used: rabbit anti-4-HNE (Abeam ab46545; 1:1.000), rabbit anti-TRPA1 (Novus Biologicals NB110-40763; 1:1,000), rabbit anti-DNP (Millipore Sigma 90451; 1:150), and mouse anti-β-actin (Santa Cruz Biotech sc-47778 HRP; 1:10,000). The following secondary antibodies were used: donkey anti-rabbit IgG (GE Healthcare NA934; 1:10,000) and goat anti-rabbit (Millipore Sigma 90452; 1:300).
Oxidative Stress Assay % 4-HNE was quantified by Western blot as described above with a rabbit anti-4-HNE (Abeam ab46545; 1:1,000) primary antibody. Protein carbonylation was assessed with the OxyBlot Protein Oxidation Detection Kit as per the manufacturer's instructions. Protein carbonylation was quantified by western blot as described above with a rabbit anti-DNP (Millipore Sigma 90451; 1:150) primary antibody. MDA was quantified with the OxiSelect TBARS Assay Kit as per the manufacturer's instructions. Concentrations below the limit of detection (LOD) were censored and substituted with a constant value of the […].

SMILES	mechanical allodynia (sensitivity to crude touch) [1]	mechanical allodynia (sensitivity to crude touch) ([1]; listed as (+)-JQ-1)	persistence of effects after treatment [1] [h]	levels of 4-HNE in maxillary nerves after nerve ligation [2]	protein carbonylation in maxillary nerves after nerve ligation [2]	duration of analgesic effect ([1]; mouse, in vivo)	mechanical allodynia ([1]; single local treatment, exemestane 25 μg/site applied directly to the maxillary nerve during surgery)	malondialdehyde in maxillary nerves after nerve ligation ([2]; sulforaphane 10 mg/kg, i.p., normalized to protein)
Cc1sc2c(c1C)C(c1ccc(Cl)cc1)=N[C@@H](CC(=O)OC(C)(C)C)c1nnc(C)n1-2 [JQ-1, (S)-tert-butyl 2-(4-(4-chlorophenyl)-2,3,9-trimethyl-6H-thieno[3,2-f][1,2,4]triazolo[4,3-a][1,4]diazepin-6-yl)acetate]	much less sensitive	lowered	24	reduced	reduced	–	–	–
C=C1C[C@@H]2[C@H](CC[C@]3(C)C(=O)CC[C@@H]23)[C@@]2(C)C=CC(=O)C=C12 [exemestane, 6-methylenandrosta-1,4-diene-3,17-dione]	much less sensitive; also recorded: lowered	–	24	reduced	reduced	persists over the course of days to weeks	lessened	–
C[S+]([O-])CCCCN=C=S (stereo not shown) [sulforaphane, 1-isothiocyanato-4-(methanesulfinyl)butane]	less sensitive	–	24	reduced	reduced	–	–	reduced
